# Assays:
# Assay type in all cases: in vivo
# [1] = system: Soybeans (Variety Viking); assay: Greenhouse seedling emergence, soybean; details: 1 mM seed treatment, 3 days after planting, controls 12 of 20
# Procedure: The desired treatment concentration of ketosuccinamate was added to an aqueous solution of 0.01% Tween 80 and the pH was set to neutral with KOH. The seeds were dipped in the solution to wet them and allowed to air dry before planting, a process that required less than 15 min. Seeds were planted in vermiculite, sand, peat moss (1:1:1) in the greenhouse and the seedling emergence was tracked. The moisture in the germination/growth substrate as maintained between 15-20% of saturation. The temperature in the house ranged from 72-82° F. Bradyrhizobium japonicum (commercial innoculum) was mixed into the substrate before planting. 3 days after planting the following seedling emergence was observed. Controls 12 of 20 had emerged from the soil. Ketosuccinamate (1 mM) treated 16 of 20 had emerged.
# [2] = system: Soybean (variety Viking) seeds; assay: Germination of treated soybean seeds on moist paper toweling; details: 10 mM seed treatment, 75-85° F.
# Procedure: The desired treatment concentration of ketosuccinamate was added to an aqueous solution of 0.01% Tween 80 and the pH was set to neutral with KOH. The seeds were dipped in the solution to wet them and allowed to air dry before planting, a process that required less than 15 min. Soybean (variety Viking) 22 hr after treatment and initiation of germination on moist paper toweling at 75-85° F. the following germination was observed. 2 of the 20 controls had broken through the pericarp whereas 9 of the 20 ketosuccinamate (10 mM) treated seeds had broken through the pericarp. 24 hours after treatment 6 of the 20 controls had broken the pericarp and 12 of the 20 ketosuccinamate-treated seeds had broken the pericarp.
# [3] = system: Alfalfa (Variety Ladak); assay: Greenhouse seedling emergence, alfalfa; details: 1 mM seed treatment, 3 days after planting, control 58%
# Procedure: The desired treatment concentration of ketosuccinamate was added to an aqueous solution of 0.01% Tween 80 and the pH was set to neutral with KOH. The seeds were dipped in the solution to wet them and allowed to air dry before planting, a process that required less than 15 min. Seeds were planted in vermiculite, sand, peat moss (1:1:2) in the greenhouse and the seedling emergence was tracked. The temperature in the house ranged from 72-82° F. Sinorhizobium meliloti inoculum (commercial innoculum) was mixed into the substrate before planting. 3 days after planting, the following seedling emergence was observed. Control 58%; Ketosuccinamate (1 mM) treated 79%.
# [4] = system: Alfalfa (variety Ladak) seeds; assay: Germination of treated alfalfa seeds on moist paper toweling; details: 3 days after initiation of germination, 65-75° F., control untreated 80%
# Procedure: The desired treatment concentration of ketosuccinamate was added to an aqueous solution of 0.01% Tween 80 and the pH was set to neutral with KOH. The seeds were dipped in the solution to wet them and allowed to air dry before planting, a process that required less than 15 min. Alfalfa (variety Ladak) 3 days after initiation of germination on moist paper toweling at 65-75° F. the following percent germination was observed. Control untreated seeds: 80%, seeds treated with 0.1 mM ketosuccinamate: 88% and seeds treated with 1 mM ketosuccinamate: 93%. At least 30 seeds were used in each set.
smiles,measurement,setting,value
"NC(=O)CC(=O)C(=O)O [ketosuccinamate, 4-amino-2,4-dioxobutanoic acid]","seedling emergence, number of 20 that had emerged from the soil",[1],16
same,number of the 20 treated seeds that had broken through the pericarp,"[2]; 22 hr after treatment, controls 2 of the 20",9
same,number of the 20 treated seeds that had broken the pericarp,"[2]; 24 hours after treatment, controls 6 of the 20",12
same,seedling emergence,[3],79%
same,percent germination,[4]; seeds treated with 0.1 mM,88%
same,percent germination,[4]; seeds treated with 1 mM,93%
